These results are taken from patent US9586896B2, “Nitroxyl donors with improved therapeutic index” (Cardioxyl Pharmaceuticals, Inc., priority 2013, dated 2017).

Structures are written as SMILES.

Series [1] is described as follows: In vitro stability (half-life) in dog plasma. Particulars: male, dog plasma pH 7.4, anticoagulant, 37° C., read-out: T1/2 (minutes) Dog. The series is classed as in vitro ADME. The protocol: Compound (1), compound (2), and CXL-1020 were tested for their stability in plasma. The assay system comprised (i) PBS, or plasma from rat, dog or human (at least 3 donors, male, pooled) at pH 7.4, and (ii) for tests conducted in plasma, an anticoagulant (sodium heparin or sodium citrate). Each test compound (5 μM) was incubated in PBS or plasma at 37° C. on a THERMOMIXER® with shaking Three samples (n=3) were taken at each of seven sampling time points: 0, 10, 30, 60, 90, 180 and 360 minutes. The samples were immediately combined with 3 volumes (i.e., 3 times the volume of PBS or plasma) of acetonitrile containing 1% formic acid and an internal standard to terminate the reaction. AB SCIEX API 3000 LC-MS/MS analysis of the test compounds was performed without a standard curve. Half-lives (T1/2) of the test compounds were determined from graphs of the percent remaining values using the peak area response ratio.

The test system of series [2] is beagle dogs. The series can be described thus: 24-hour continuous infusion, canine peripheral (cephalic) vein model, clinical pathology. The series is classed as in vivo. Particulars: for NOAEL (μg/kg/min), clinical pathology markers: 24 hour i.v. infusion, CAPTISOL 7% w/v pH 4, WBC, fibrinogen, CRP, molar equivalent dose rates to CXL-1020. The protocol:
After 24 hours of infusion, clinical pathology changes similar to those observed in previous studies using an implanted central catheter were detected.
Studies were conducted in male and female beagle dogs. Animals were allowed free access to drinking water and a commercial canine diet under standard laboratory conditions. Animals were fasted prior to blood sample collections when indicated by the study protocol. Fluorescent lighting was provided via an automatic timer for approximately 12 hours per day. On occasion, the dark cycle was interrupted intermittently due to study-related activities. Temperature and humidity were monitored and recorded daily and maintained to the maximum extent possible between 64° F. to 84° F. and 30% to 70%, respectively. The dogs were acclimated for a period of at least 1 week. During this period, the animals were weighed weekly and observed with respect to general health and any signs of disease. The animals were acclimated to wearing a jacket for at least three days prior to dose administration. Additionally, the animals were also acclimated to wearing an Elizabethan collar (e-collar) during the jacket acclimation.
Animals were catheterized the day prior to dose administration. A percutaneous catheter was placed (using aseptic technique and sterile bandaging) in the cephalic vein distal to the elbow. The animals were free-moving in their cages during continuous infusion dose administration. To facilitate continuous infusion dose administration, the peripheral catheter was attached to an extension set routed underneath a canine jacket and then attached to a tether infusion system. To prevent the animals from accessing/removing the peripherally placed percutaneous catheter, the catheterization site was bandaged using Vet Wrap and an e-collar was placed on the animals for the duration of the treatment (i.e., the catheterized period). During the pretreatment period, the venous catheter was infused continuously at a rate of approximately 2-4 mL/hr with 0.9% sodium chloride for injection, USP (saline) to maintain catheter patency. Prior to dosing, the infusion system was pre-filled (slow bolus infusion) with the respective dosing solution to ensure that dosing began as soon as the infusion pump was started. The infusion line was connected to a reservoir containing the control or test compound and the infusion was started. Test compositions were infused continuously, at a predetermined constant infusion rate (1 or 2 mL/kg/hr), for 24 hours and were compared at molar equivalent dose rates.
A detailed clinical examination of each animal was performed twice daily and body temperature measurements and blood samples for clinical pathology were collected from all animals pre-dose and 6 hours, 12 hours, 24 hours and 72 hours post start of composition infusion. At the termination of the study, all animals were euthanized at their scheduled necropsy and complete necropsy examinations were performed. Selected tissues were collected, fixed and stored for potential future microscopic examination. The cephalic vein containing the infusion catheter was dissected intact along with the brachial vein and examined along its entire length. The location of the catheter tip was marked on the unfixed specimen. […]

[3] abbreviates: dogs, percutaneous catheter in cephalic vein.

Take `CS(=O)(=O)c1cccc(S(=O)(=O)NO)c1` [(2), N-Hydroxy-3-methanesulfonylbenzene-1-sulfonamide]: in series [1], the half-life at 5 μM came out at 33 min. The “NOAEL (μg/kg/min), clinical pathology markers” value in series [2] (dogs) was 3 μg/kg/min.
For the compound `CS(=O)(=O)c1ccccc1S(=O)(=O)NO` [CXL-1020, N-hydroxy-2-methanesulfonylbenzene-1-sulfonamide], the “NOAEL (μg/kg/min), clinical pathology markers” value in series [2] (dogs) is less than 0.03 μg/kg/min. Besides, in series [2] (setting [3]), the “finding after 6 hours of infusion” value was “significant edema was observed in the upper forelimb” and the “microscopic pathology after 24 hours of infusion” value is on record as “severe thrombophlebitis at the catheter tip”.
For `Cc1ccc(S(=O)(=O)NO)o1` [Compound (1), N-Hydroxy-5-methylfuran-2-sulfonamide], the half-life at 5 μM in series [1] is 25 min. In addition, the “improvement in NOAEL relative to CXL-1020” value in series [2] (clinical pathology markers) was greater than 660 fold.
